Laboratory results from PubChem BioAssay AID1963969 (Molecular Pharmacology Branch, DTP, NCI, 2024).

Tested on: 817829-284-R-J1-PDC multi-cell spheroid viability
Experiment: Anticancer human tumor 817829-284-R-J1-PDC patient-derived colon adenocarcinoma cell line growth inhibition [PI3K]
Settings: for IC50: curve of first compound; for viability, T/C: stronger effect = lower value
From the text: Combinatorial screen of targeted agents with the PI3K inhibitors inavolisib, alpelisib, duvelisib, and copanlisib in multi-cell type tumor spheroids
A high-throughput screen of multi-cell type tumor spheroids was designed to identify active combinations of targeted small molecules and PI3K pathway inhibitors. Complex spheroids include a stromal component modeled by human endothelial cells (HUVEC) and fibroblasts modeled by human mesenchymal stem cells (MSCs). The concentration ranges selected for each drug and investigational agent were based upon clinically achievable concentrations if the clinical Cmax of the agent was known.
Compounds. The drugs and investigational agents: inavolisib (NSC800729), alpelisib (NSC765974), duvelisib (NSC772469), copanlisib (NSC816437), ipatasertib (NSC767898), afuresertib (NSC778305), talazoparib (NSC767125), sapanisertib (NSC764658), selumetinib (NSC741078), tovorafenib (DAY101, NSC766906), vemurafenib (NSC761431), ravoxertinib (NSC781343), sotorasib (NSC818433), MRTX1133 (NSC 836407), abemaciclib (NSC 768073), palbociclib (NSC758247), venetoclax (NSC 766270), SY5609 (NSC837396), enzalutamide (NSC755605), and darolutamide (NSC825331), were obtained from the National Cancer Institute (NCI) Developmental Therapeutics Program Chemical Repository. The FDA-approved anticancer drug set is available from the NCI Developmental Therapeutics Program. […] The stock solutions were prepared in dimethyl sulfoxide (DMSO, Sigma-Aldrich, St. Louis, MO, cat. D2650) at 800-fold the tested concentration and stored at -70 degrees C prior to their use. All drugs and investigational agents were tested over a range starting from a high concentration at or near the clinical Cmax and decreasing in half-log increments. If the clinical Cmax for an agent had not been determined, the highest concentration tested was 10 microM.
Cell Culture. All cells were maintained in an incubator at 37 degrees C and 5% CO2 with 95% humidity. The PDC lines were cultured according to standard operating procedures established by the NCI PDMR (https://pdmr.cancer.gov/sops/default.htm). All PDCs were thawed and cultured in Matrigel-coated flasks prepared with a working solution of 1X Ham's F-12 nutrient mix, without supplementation (Invitrogen, Waltham, MA, cat. 11765054), 100 U/mL penicillin-streptomycin (Invitrogen, cat. 15140122), and 2.5% Matrigel (Corning Inc., Corning, NY, cat. 354248) for the first three passages. The 354836-022-R-J1-PDC, 475296-252-R-J1-PDC, and 997726-040-R-J2-PDC lines were cultured in 6A media, which includes advanced DMEM/F-12 (Thermo Fisher Scientific, cat. 12634028), 10 mM HEPES (Thermo Fisher Scientific, cat. 15630080), 1X GlutaMAX supplement (Thermo Fisher Scientific, cat. 35050061), 0.1 mg/mL primocin (InvivoGen, San Diego, CA, cat. ant-pm-2), 10% defined fetal bovine serum, heat inactivated (HyClone Laboratories Inc., Logan, UT, cat. SH30070.03HI), 50% L-WRN conditioned media (ATCC, cat. CRL-3276), 1.25 mM N-Acetyl-L-cysteine (Sigma-Aldrich, cat. A9165), 10 mM nicotinamide (Sigma-Aldrich, cat. N0636), 1X B-27 supplement (Thermo Fisher Scientific, cat. 17504044), 1X N-2 supplement (Thermo Fisher Scientific, cat. 17502048), and 10 microM Y-27632 dihydrochloride (Tocris Bioscience, Bristol, United Kingdom, cat. 1254). The 624824-186-R-J2-PDC line was cultured in 6C/Colon 1B media, which includes all 6A media components plus 50 ng/mL human EGF recombinant protein (Thermo Fisher Scientific, cat. PHG0311). […]

[1] = second compound 0.00316 µM, first compound 0.0316 µM
[2] = second compound 0.00316 µM, first compound 0.1 µM
[3] = second compound 0.00316 µM, first compound 0.316 µM
[4] = second compound 0.00316 µM, first compound 1 µM
[5] = second compound 0.00316 µM, first compound 3.16 µM
[6] = second compound 0.00316 µM, first compound 10 µM
[7] = second compound 0.01 µM, first compound 0.0316 µM
[8] = second compound 0.01 µM, first compound 0.1 µM
[9] = second compound 0.01 µM, first compound 0.316 µM
[10] = second compound 0.01 µM, first compound 1 µM
[11] = second compound 0.01 µM, first compound 3.16 µM
[12] = second compound 0.01 µM, first compound 10 µM
[13] = second compound 0.0316 µM, first compound 0.0316 µM
[14] = second compound 0.0316 µM, first compound 0.1 µM
[15] = second compound 0.0316 µM, first compound 0.316 µM
[16] = second compound 0.0316 µM, first compound 1 µM
[17] = second compound 0.0316 µM, first compound 3.16 µM
[18] = second compound 0.0316 µM, first compound 10 µM
[19] = second compound 0.1 µM, first compound 0.0316 µM
[20] = second compound 0.1 µM, first compound 0.1 µM
[21] = second compound 0.1 µM, first compound 0.316 µM
[22] = second compound 0.1 µM, first compound 1 µM
[23] = second compound 0.1 µM, first compound 3.16 µM
[24] = second compound 0.1 µM, first compound 10 µM
[25] = second compound 0.316 µM, first compound 0.0316 µM
[26] = second compound 0.316 µM, first compound 0.1 µM
[27] = second compound 0.316 µM, first compound 0.316 µM
[28] = second compound 0.316 µM, first compound 1 µM
[29] = second compound 0.316 µM, first compound 3.16 µM
[30] = second compound 0.316 µM, first compound 10 µM
[31] = second compound 1 µM, first compound 0.0316 µM
[32] = second compound 1 µM, first compound 0.1 µM
[33] = second compound 1 µM, first compound 0.316 µM
[34] = second compound 1 µM, first compound 1 µM
[35] = second compound 1 µM, first compound 3.16 µM
[36] = second compound 1 µM, first compound 10 µM
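Also: spheroids exposed to agents for seven days before readout.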
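For viability, T/C in this document: percent of vehicle DMSO control viability which is 100%.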

With `Cn1ncc(Cl)c1-c1cc(C(=O)NC(CN)Cc2cccc(F)c2)sc1Cl` (centres undefined) + CC(Nc1ccc2c(c1)OCCn1cc(N3C(=O)OCC3C(F)F)nc1-2)C(N)=O the IC50 (second compound 0.00316 µM) was < 0.0316 µM, the IC50 (second compound 0.01 µM) was 0.106 µM and the IC50 (second compound 0.0316 µM) was < 0.0316 µM. For the same compound, the IC50 (second compound 0.1 µM) was 0.0416 µM, the IC50 (second compound 0.316 µM) was < 0.0316 µM and the IC50 (second compound 1 µM) was < 0.0316 µM. For the same compound, the viability, T/C [1] was 73.2%, the viability, T/C [2] was 38.6% and the viability, T/C [3] was 22.8%. The viability, T/C [4] was 16.9%, the viability, T/C [5] was 16.3% and the viability, T/C [6] was 98.6%. It also gave a viability, T/C [7] of 81.4%, a viability, T/C [8] of 51% and a viability, T/C [9] of 22%. The viability, T/C [10] was 19.1%, the viability, T/C [11] was 14.4% and the viability, T/C [12] was 69%. It also gave a viability, T/C [13] of 49.4%, a viability, T/C [14] of 30.6% and a viability, T/C [15] of 14.9%. For the same compound, the viability, T/C [16] was 16.5%, the viability, T/C [17] was 14.7% and the viability, T/C [18] was 55.9%. It also gave a viability, T/C [19] of 56.3%, a viability, T/C [20] of 31.4% and a viability, T/C [21] of 21%. It also gave a viability, T/C [22] of 16.7%, a viability, T/C [23] of 14% and a viability, T/C [24] of 53.2%. The viability, T/C [25] was 46.4%, the viability, T/C [26] was 33.7% and the viability, T/C [27] was 16.8%. It also gave a viability, T/C [28] of 13.2%, a viability, T/C [29] of 11.9% and a viability, T/C [30] of 44.7%. For the same compound, the viability, T/C [31] was 34.4%, the viability, T/C [32] was 25.6% and the viability, T/C [33] was 16.7%. The viability, T/C [34] was 14.2%, the viability, T/C [35] was 12.3% and the viability, T/C [36] was 84.7%.

`Cn1nccc1Nc1nccc(-c2ccn(C(CO)c3ccc(Cl)c(F)c3)c(=O)c2)n1` (centres undefined) + CC(Nc1ccc2c(c1)OCCn1cc(N3C(=O)OCC3C(F)F)nc1-2)C(N)=O gave an IC50 (second compound 0.00316 µM) of 6.06 µM, an IC50 (second compound 0.01 µM) of 4.63 µM and an IC50 (second compound 0.0316 µM) of 7.18 µM. For the same compound, the IC50 (second compound 0.1 µM) was 6.97 µM, the IC50 (second compound 0.316 µM) was 3.89 µM and the IC50 (second compound 1 µM) was > 10 µM. The viability, T/C [1] was 87.6%, the viability, T/C [2] was 72.7% and the viability, T/C [3] was 88.3%. For the same compound, the viability, T/C [4] was 72.5%, the viability, T/C [5] was 83.5% and the viability, T/C [6] was 26.2%. For the same compound, the viability, T/C [7] was 70%, the viability, T/C [8] was 79.8% and the viability, T/C [9] was 76.7%. For the same compound, the viability, T/C [10] was 70.9%, the viability, T/C [11] was 64.1% and the viability, T/C [12] was 22.2%. The viability, T/C [13] was 90.6%, the viability, T/C [14] was 102% and the viability, T/C [15] was 90.2%. For the same compound, the viability, T/C [16] was 105%, the viability, T/C [17] was 98.5% and the viability, T/C [18] was 30.9%. For the same compound, the viability, T/C [19] was 58.9%, the viability, T/C [20] was 84.9% and the viability, T/C [21] was 92.3%. The viability, T/C [22] was 115%, the viability, T/C [23] was 87% and the viability, T/C [24] was 33%. For the same compound, the viability, T/C [25] was 110%, the viability, T/C [26] was 67.6% and the viability, T/C [27] was 80.5%. The viability, T/C [28] was 60.8%, the viability, T/C [29] was 65.7% and the viability, T/C [30] was 33.1%. The viability, T/C [31] was 55.9%, the viability, T/C [32] was 63.7% and the viability, T/C [33] was 72.4%. For the same compound, the viability, T/C [34] was 80.3%, the viability, T/C [35] was 75.9% and the viability, T/C [36] was 34.4%.
